Where only a bound is given, the exact number is not on record here.

The results in this text go back to ChEMBL document CHEMBL1142413.

For test [1], the species on record is Homo sapiens. Briefly: Ratio of IC50 for human CB1R S383A mutant to IC50 for human wild type CB1R.
Test [2] is filed under the species Homo sapiens. Briefly: Ratio of IC50 for human CB1R F200L mutant to IC50 for human wild type CB1R.
The species entered for test [3] is Homo sapiens. As to the kind of experiment: Ratio of IC50 for human CB1R K192L mutant to IC50 for human wild type CB1R.
Test [4] is filed under the species Homo sapiens. Briefly: Ratio of IC50 for human CB1R W279A mutant to IC50 for human wild type CB1R.

Take `Cc1c(C(=O)NN2CCCCC2)nn(-c2ccc(Cl)cc2Cl)c1-c1ccc(Cl)cc1`: the Fold change in the test filed under Homo sapiens [1] is less than 2; in the test filed under Homo sapiens [2], 3; in the test filed under Homo sapiens [3], 17; in the test listed under Homo sapiens [4], more than 1000.
